These results are taken from ChEMBL document CHEMBL1201862, “PubChem BioAssay data set” (2004).

Activity calls are given as the source filed them.

Experiment [1] has as its target T1, Peroxisome proliferator-activated receptor gamma (Homo sapiens, UniProt P37231).
T1 sequence (P37231 whole entry): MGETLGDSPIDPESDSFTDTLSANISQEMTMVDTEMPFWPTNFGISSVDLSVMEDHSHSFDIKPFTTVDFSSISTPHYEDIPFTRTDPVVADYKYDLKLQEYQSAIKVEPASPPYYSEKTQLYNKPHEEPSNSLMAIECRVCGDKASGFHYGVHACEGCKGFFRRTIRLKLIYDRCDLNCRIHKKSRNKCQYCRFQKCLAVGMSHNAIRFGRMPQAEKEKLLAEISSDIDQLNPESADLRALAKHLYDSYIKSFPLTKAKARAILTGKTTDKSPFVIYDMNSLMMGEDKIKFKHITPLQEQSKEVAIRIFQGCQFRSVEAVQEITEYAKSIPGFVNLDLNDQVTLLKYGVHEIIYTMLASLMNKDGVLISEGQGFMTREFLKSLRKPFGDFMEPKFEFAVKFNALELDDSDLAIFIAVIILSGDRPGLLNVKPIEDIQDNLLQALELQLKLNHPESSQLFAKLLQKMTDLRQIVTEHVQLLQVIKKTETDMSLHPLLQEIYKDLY
Kind of experiment: PPARg ligand-binding domain binders, dose response, PPARg partial agonist project, biochemical, TR-FRET, LanthaScreen (AID 504446). Background: Time-resolved FRET reads energy transfer from a long-lived donor to a nearby acceptor.

Experiment [2] addresses T1, Peroxisome proliferator-activated receptor gamma. The experiment can be described thus: PPARg ligand-binding domain binders, dose response, PPARg partial agonist project, biochemical, fluorescence polarization, PolarScreen (AID 504453). (In fluorescence polarisation assays a small probe gives low polarisation when free and higher when bound to something large.)
For experiment [3] the target is unchanged. Kind of experiment: PPARg partial agonists, dose response, cell-based, luminescence, assay provider (AID 504447). In kind it is functional.
For experiment [4], the target named is T2, Runt-related transcription factor 1/Core-binding factor subunit beta (Homo sapiens, UniProt Q01196+Q13951). The experiment can be described thus: inhibitors of RUNX1 Runt–CBFb-SMMHC binding, primary screen, biochemical, FRET, Cerulean-Runt, Venus-CBFb-SMMHC, uHTS (AID 1434).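 Note: partner is the CBFb-SMMHC leukemia fusion protein rather than wild-type CBFb.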 It is filed as protein assay.
The target of experiment [5] is T3, Probable nicotinate-nucleotide adenylyltransferase (Staphylococcus aureus (strain N315), UniProt P65502). In kind it is functional, Staphylococcus aureus subsp. aureus N315. The conditions noted are these: read-out: IC50_Mean.
The target of experiment [6] is T4, Low molecular weight phosphotyrosine protein phosphatase (Homo sapiens, UniProt P24666).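 Note: Dose-response confirmation assay measuring inhibition of LMPTP enzyme activity by fluorescence intensity read-out.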
T4 sequence (P24666 whole entry): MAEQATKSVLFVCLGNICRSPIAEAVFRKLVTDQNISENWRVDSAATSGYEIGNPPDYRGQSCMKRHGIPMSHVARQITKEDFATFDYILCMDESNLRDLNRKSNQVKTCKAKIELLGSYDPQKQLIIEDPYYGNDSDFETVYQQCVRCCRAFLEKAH
It is filed as functional. The conditions noted are these: read-out: IC50_Mean.

Experiment [7] concerns the target Induced myeloid leukemia cell differentiation protein Mcl-1 (Homo sapiens, UniProt Q07820). In kind it is functional.
Experiment [8] concerns the target T3, Probable nicotinate-nucleotide adenylyltransferase. It is filed as functional, Staphylococcus aureus subsp. aureus N315.
The target in experiment [9] is T2, Runt-related transcription factor 1/Core-binding factor subunit beta. The experiment can be described thus: inhibitors of RUNX1 Runt–CBFb-SMMHC binding, biochemical, TR-FRET (AID 1438). In kind it is protein assay.
Experiment [10] addresses T5, Corticotropin-releasing factor receptor 2/Corticotropin-releasing factor-binding protein (Homo sapiens, UniProt P24387+Q13324).
T5 sequence (Q13324 whole entry): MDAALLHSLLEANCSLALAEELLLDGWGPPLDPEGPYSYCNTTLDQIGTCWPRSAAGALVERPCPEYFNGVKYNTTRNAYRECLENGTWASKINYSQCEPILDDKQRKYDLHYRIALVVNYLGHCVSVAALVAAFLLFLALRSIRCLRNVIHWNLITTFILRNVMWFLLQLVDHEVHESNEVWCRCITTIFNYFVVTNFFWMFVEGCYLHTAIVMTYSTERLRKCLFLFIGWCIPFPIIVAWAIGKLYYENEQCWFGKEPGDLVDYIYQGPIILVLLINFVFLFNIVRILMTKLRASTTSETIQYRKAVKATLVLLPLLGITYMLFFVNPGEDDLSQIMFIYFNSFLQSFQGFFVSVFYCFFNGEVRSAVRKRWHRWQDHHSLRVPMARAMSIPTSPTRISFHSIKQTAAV
T5 sequence (P24387 whole entry): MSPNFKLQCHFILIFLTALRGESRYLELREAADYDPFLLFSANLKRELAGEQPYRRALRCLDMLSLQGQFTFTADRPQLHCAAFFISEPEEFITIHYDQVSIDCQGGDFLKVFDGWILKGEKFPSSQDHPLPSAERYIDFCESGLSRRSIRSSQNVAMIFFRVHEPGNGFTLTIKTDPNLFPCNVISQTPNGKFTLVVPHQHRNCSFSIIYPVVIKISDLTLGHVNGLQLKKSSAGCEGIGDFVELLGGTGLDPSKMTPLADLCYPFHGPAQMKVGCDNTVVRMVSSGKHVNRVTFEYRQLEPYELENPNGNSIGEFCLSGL
Kind of experiment: activators of CRF receptor 2 with binding protein – uHTS hits, confirmation (AID 602473). It is filed as functional. The conditions noted are these: read-out: EC50_Mean.

For the next experiment, the target named is Coagulation factor XII (Homo sapiens, UniProt P00748). In kind it is functional.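 Note: activated factor XIIa alpha cleaving a fluorogenic AMC peptide substrate; inhibitor potency from loss of enzyme activity.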
The target of another experiment is Mucolipin-3 (Homo sapiens, UniProt Q8TDD5). The experiment can be described thus: Fluorescence counterscreen assay for […] agonists: dose response cell-based high-throughput screening assay to identify agonists of the transient receptor potential channel ML3 (TRPML3). [Related pubchem assays: 1424, 1448 ]. It is filed as functional. (In general: The purpose of a counterscreen is to sort out artefacts and off-target activity.)

Experiment [11] addresses T6, Zinc finger protein mex-5 (Caenorhabditis elegans, UniProt Q9XUB2).
T6 sequence (Q9XUB2 whole entry): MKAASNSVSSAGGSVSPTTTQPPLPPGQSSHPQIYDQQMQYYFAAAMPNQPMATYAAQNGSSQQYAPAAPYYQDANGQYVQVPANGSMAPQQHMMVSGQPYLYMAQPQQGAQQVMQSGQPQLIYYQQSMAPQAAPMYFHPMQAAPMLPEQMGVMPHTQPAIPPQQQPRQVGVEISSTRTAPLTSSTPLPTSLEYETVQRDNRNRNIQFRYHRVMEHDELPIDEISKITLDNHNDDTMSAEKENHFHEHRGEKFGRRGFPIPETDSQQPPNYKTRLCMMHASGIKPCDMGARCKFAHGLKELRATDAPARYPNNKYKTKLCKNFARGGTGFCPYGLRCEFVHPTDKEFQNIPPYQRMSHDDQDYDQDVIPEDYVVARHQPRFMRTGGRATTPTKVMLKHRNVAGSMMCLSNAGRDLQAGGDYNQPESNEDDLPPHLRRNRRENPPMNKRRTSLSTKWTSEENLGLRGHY
Kind of experiment: MEX-5/TCR-2 RNA interaction inhibitors, dose response, biochemical, C. elegans, fluorescence polarization (AID 1960).

In another experiment the target is Ion channel NompC (Danio rerio, UniProt Q7T1G6). The experiment can be described thus: Dose response cell-based high-throughput screening assay for agonists of the transient receptor potential channel N1 (TRPN1). [Related pubchem assays (depositor defined):AID1424, AID1448]. It is filed as functional.
The target of experiment [12] is T7, RNA-binding protein pos-1 (Caenorhabditis elegans, UniProt G5EF15).
T7 sequence (G5EF15 whole entry): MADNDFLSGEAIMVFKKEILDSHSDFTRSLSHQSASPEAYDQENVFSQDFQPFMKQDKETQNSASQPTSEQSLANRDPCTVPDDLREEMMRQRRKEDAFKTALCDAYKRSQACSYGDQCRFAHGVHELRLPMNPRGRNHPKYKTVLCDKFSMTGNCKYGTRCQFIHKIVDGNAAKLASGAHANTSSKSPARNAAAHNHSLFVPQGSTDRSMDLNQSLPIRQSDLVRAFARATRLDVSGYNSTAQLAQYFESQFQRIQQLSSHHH
Kind of experiment: inhibitors of POS-1/mex-3 RNA binding, dose response, biochemical, fluorescence polarization (AID 1964).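 Note: purified POS-1 fused to maltose binding protein made in E. coli; potency of compounds blocking POS-1 binding to fluorescent RNA.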

In experiment [13] the target is G-protein coupled receptor 55 (Homo sapiens, UniProt Q9Y2T6). The experiment can be described thus: SAR Analysis of Selective Antagonists of GPR55 using an Image-Based Assay - Set 4. [Related pubchem assays (depositor defined):AID2013, AID2026]. It is filed as functional.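 Note: antagonism of response to 5 µM lysophosphatidylinositol agonist.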
In experiment [14] the target is T8, Cannabinoid receptor 1 (Homo sapiens, UniProt P21554). Kind of experiment: SAR analysis of antagonists of the Cannabinoid Receptor 1 using an Image-Based Assay - Set 4. [Related pubchem assays (depositor defined):AID2013, AID2026]. In kind it is functional.
For experiment [15], the target named is T9, Cannabinoid receptor 2 (Homo sapiens, UniProt P34972). The experiment can be described thus: SAR analysis of antagonists of the Cannabinoid Receptor 2 using an Image-Based Assay - Set 3. [Related pubchem assays (depositor defined):AID2013, AID2026]. It is filed as functional.
Experiment [16] addresses T10, G-protein coupled receptor 35 (Homo sapiens, UniProt Q9HC97). The experiment can be described thus: SAR analysis of Antagonists of the GPR35 Receptor using an Image-Based Assay - Set 6. [Related pubchem assays (depositor defined):AID2013, AID2026]. It is filed as functional.
Experiment [17] has as its target T8, Cannabinoid receptor 1. The experiment can be described thus: SAR analysis of agonists of the Cannabinoid Receptor 1 using an Image-Based Assay - Set 4. [Related pubchem assays (depositor defined):AID2013, AID2026]. It is filed as functional.
Experiment [18] has as its target T9, Cannabinoid receptor 2. The experiment can be described thus: SAR analysis of agonists of the Cannabinoid Receptor 2 using an Image-Based Assay - Set 3. [Related pubchem assays (depositor defined):AID2013, AID2026]. In kind it is functional.
Experiment [19] deals with T10, G-protein coupled receptor 35. Kind of experiment: SAR analysis of Agonists of the GPR35 Receptor using an Image-Based Assay - Set 4. [Related pubchem assays (depositor defined):AID2013, AID2026]. It is filed as functional.
Experiment [20] deals with T11, Mu-type opioid receptor (Homo sapiens, UniProt P35372). Kind of experiment: MOR agonists by imaging, SAR follow-up, image-based (AID 2352). In kind it is functional.
The target in experiment [21] is T12, Delta-type opioid receptor (Homo sapiens, UniProt P41143). Kind of experiment: DOR agonists, SAR follow-up, image-based (AID 2370). In kind it is functional.
Experiment [22] concerns the target T13, Kappa-type opioid receptor (Homo sapiens, UniProt P41145). The experiment can be described thus: KOR antagonists by imaging, SAR follow-up, image-based (AID 2348). In kind it is functional.
The target in experiment [23] is T12, Delta-type opioid receptor. Kind of experiment: DOR antagonists, SAR follow-up, image-based (AID 2357). In kind it is functional.
For experiment [24], the target named is T11, Mu-type opioid receptor. The experiment can be described thus: MOR antagonists, SAR follow-up, image-based (AID 2420).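 Note: compounds added before stimulation of receptor with agonist DAMGO.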 In kind it is functional.
The target in experiment [25] is T13, Kappa-type opioid receptor. The experiment can be described thus: SAR analysis of small molecule agonists of the kappa opioid receptor via a luminescent beta-arrestin assay. [Related pubchem assays (depositor defined):AID1777, AID1786, AID1966, AID2133, AID2136, AID2348, AID2352, AID2357, AID2359, AID2370, AID2420, AID2478, AID2491, AID2492, AID2493, AID2497, AID2498, AID2500, AID449737, AID488822, AID488842]. In kind it is functional.

T10 sequence (Q9HC97 whole entry): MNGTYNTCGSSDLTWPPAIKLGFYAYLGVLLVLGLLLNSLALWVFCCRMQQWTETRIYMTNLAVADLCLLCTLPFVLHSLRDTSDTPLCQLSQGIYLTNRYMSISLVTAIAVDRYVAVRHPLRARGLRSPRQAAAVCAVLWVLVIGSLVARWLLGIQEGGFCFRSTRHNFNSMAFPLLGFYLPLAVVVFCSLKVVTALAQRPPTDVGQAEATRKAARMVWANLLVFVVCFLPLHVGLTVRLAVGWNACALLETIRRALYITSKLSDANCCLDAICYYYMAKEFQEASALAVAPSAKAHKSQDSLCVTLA
T11 sequence (P35372 whole entry): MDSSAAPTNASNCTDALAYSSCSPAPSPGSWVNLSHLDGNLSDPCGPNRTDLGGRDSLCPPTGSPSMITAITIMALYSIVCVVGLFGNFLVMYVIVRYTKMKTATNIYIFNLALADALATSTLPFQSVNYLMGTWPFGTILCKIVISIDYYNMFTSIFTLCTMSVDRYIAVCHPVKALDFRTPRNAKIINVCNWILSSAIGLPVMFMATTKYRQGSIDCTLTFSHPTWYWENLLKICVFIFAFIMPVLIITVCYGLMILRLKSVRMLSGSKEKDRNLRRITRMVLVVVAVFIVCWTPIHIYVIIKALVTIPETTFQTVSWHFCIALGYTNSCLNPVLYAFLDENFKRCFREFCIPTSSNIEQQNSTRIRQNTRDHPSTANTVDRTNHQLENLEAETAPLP
T9 sequence (P34972 whole entry): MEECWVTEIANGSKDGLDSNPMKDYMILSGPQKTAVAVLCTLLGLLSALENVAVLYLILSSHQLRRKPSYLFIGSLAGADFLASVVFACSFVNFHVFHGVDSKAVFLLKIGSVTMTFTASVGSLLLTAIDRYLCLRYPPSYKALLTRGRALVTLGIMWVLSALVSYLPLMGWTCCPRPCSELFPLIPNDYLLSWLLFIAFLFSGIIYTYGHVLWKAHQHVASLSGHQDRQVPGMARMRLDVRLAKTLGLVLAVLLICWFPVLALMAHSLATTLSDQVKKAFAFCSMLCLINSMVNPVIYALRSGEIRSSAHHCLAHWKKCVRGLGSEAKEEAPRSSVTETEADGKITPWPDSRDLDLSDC
T8 sequence (P21554 whole entry): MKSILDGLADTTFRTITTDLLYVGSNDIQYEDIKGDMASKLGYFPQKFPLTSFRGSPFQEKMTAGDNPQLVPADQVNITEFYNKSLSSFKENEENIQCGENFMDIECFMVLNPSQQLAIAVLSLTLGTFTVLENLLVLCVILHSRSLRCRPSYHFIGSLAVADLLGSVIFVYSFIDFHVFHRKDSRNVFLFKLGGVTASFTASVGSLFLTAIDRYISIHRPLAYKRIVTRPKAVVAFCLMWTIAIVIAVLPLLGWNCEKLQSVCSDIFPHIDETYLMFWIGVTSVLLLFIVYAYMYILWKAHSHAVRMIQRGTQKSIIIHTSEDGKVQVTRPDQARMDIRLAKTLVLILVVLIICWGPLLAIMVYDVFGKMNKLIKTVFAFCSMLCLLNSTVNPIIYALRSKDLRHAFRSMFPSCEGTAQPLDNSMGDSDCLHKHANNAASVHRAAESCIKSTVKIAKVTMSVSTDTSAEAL
T12 sequence (P41143 whole entry): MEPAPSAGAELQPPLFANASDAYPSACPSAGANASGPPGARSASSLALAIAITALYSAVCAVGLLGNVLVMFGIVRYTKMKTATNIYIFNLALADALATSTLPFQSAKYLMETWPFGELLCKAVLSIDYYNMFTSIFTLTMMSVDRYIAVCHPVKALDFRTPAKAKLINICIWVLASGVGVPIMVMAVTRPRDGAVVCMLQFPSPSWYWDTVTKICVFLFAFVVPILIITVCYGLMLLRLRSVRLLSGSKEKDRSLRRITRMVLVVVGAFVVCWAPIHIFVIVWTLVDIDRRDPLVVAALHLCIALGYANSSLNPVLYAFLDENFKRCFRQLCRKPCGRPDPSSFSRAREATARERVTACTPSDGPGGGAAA
T13 sequence (P41145 whole entry): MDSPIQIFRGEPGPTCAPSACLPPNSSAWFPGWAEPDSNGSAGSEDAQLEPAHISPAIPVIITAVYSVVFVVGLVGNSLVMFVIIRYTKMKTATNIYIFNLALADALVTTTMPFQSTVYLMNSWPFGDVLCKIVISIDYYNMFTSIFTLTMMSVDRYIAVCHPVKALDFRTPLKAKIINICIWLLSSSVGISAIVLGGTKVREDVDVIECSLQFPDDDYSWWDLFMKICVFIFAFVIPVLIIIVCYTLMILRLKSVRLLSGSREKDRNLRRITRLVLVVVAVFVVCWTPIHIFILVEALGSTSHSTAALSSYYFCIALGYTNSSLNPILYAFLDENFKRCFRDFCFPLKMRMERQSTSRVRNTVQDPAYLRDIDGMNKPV
T3 sequence (P65502 whole entry): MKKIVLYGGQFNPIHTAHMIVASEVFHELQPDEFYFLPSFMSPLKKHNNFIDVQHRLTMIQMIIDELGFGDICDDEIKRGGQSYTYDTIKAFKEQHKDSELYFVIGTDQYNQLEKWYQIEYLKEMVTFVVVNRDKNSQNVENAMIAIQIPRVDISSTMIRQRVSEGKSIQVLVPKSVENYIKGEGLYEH
T2 sequence (Q01196 whole entry, the tested form may be a part): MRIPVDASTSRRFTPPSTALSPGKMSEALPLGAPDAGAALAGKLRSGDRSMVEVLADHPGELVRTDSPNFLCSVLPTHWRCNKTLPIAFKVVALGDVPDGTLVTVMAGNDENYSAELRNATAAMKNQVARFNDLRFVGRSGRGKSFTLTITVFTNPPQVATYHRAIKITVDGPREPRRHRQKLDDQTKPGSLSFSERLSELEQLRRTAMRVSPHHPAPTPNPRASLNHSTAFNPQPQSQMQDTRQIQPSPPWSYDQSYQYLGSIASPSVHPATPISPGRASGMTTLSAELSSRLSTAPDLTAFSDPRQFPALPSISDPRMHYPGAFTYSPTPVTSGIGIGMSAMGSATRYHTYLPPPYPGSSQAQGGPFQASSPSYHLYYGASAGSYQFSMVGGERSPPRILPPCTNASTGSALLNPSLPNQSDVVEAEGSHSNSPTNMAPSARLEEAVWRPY
T2 sequence (Q13951 whole entry, the tested form may be a part): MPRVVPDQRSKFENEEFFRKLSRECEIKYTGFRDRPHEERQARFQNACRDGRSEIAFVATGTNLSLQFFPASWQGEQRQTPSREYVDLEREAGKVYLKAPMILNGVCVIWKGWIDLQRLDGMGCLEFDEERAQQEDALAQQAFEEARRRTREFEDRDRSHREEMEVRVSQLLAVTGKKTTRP
Ion channel NompC, sequence (Q7T1G6 whole entry): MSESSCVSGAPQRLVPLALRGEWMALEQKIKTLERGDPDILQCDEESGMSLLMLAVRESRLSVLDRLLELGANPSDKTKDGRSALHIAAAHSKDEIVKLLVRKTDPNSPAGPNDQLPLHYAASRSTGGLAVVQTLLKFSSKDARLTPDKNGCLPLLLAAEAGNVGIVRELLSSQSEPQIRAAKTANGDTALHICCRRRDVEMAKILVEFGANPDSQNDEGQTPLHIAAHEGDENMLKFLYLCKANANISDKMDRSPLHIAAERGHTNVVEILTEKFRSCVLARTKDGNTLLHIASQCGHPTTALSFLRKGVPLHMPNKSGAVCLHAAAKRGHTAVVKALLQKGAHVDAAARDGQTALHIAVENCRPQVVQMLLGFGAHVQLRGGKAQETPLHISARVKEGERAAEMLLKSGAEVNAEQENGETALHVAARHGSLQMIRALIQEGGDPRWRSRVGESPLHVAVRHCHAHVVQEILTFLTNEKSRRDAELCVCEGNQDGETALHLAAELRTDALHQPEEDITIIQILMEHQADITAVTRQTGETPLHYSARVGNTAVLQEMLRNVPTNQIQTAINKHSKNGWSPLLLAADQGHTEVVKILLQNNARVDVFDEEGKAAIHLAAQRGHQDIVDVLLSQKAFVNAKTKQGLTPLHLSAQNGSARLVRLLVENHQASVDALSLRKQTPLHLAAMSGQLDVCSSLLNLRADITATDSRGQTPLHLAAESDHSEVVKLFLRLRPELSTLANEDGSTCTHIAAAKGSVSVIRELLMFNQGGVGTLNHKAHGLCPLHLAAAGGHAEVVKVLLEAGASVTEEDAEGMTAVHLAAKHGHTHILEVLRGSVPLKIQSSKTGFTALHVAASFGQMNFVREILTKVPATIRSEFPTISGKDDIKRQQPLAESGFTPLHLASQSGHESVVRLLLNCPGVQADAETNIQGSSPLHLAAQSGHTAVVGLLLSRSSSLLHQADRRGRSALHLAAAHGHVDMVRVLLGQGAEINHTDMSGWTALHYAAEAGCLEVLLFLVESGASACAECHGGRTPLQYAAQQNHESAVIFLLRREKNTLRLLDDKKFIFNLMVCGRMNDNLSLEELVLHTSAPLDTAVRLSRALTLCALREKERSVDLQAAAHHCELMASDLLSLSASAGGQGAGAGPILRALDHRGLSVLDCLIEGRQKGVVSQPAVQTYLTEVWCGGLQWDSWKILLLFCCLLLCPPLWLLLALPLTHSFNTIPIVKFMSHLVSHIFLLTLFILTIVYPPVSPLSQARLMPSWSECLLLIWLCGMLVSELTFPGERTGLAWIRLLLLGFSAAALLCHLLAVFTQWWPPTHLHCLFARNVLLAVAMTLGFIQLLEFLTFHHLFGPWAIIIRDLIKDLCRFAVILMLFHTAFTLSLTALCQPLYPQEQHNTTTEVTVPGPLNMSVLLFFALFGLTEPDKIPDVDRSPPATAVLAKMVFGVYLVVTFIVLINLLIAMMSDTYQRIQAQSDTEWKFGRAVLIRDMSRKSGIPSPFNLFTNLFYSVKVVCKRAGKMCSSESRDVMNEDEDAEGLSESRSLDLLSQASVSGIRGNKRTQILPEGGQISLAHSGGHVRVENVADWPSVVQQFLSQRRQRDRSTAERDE

With `COc1ccc2nc(N3C(=O)C(O)=C(C(=O)c4ccco4)C3c3ccc(C)o3)sc2c1` (centres undefined), the IC50 is 1.2 µM (active) in [1] and 5 µM (active) in experiment [2]. Besides, the EC50 in experiment [3] is 5 µM (active).

Turning to `Oc1nc(C(Cl)Cl)nc2sc3c(c12)CCN(Cc1ccccc1)C3`, the IC50 in experiment [4] was 2.89 µM (active); in [5] it was 18.7 µM (active); in experiment [6], 7.87 µM (active); in [7], 3.75 µM (not active); in experiment [8], 9.04 µM (active); in experiment [9], 13.4 µM (active). Moreover, the EC50 in experiment [10] was > 53 µM (inactive).

`COc1cc(-c2nnco2)cc(OC)c1OC`: the IC50 on Coagulation factor XII is > 50 µM (inactive).

On to `Nc1c(C(=O)c2ccc(Cl)cc2)sc2nsc(SCCN3CCOCC3)c12`, for which the EC50 at Mucolipin-3 was > 9.97 µM (not active); in experiment [11] it was 74.2 µM (inconclusive); at Ion channel NompC, > 9.97 µM (inactive); in experiment [12] it was > 300 µM (not active); in experiment [10], 9.14 µM (active).

Consider `N=c1c(C(=O)NCCc2ccccc2)cc2c(=O)n3ccccc3nc2n1C1CCCC1`, for which the IC50 (in experiment [13]; at Cannabinoid receptor 1 [14]; at Cannabinoid receptor 2 [15]; in experiment [16]) was > 32 µM (inactive) throughout. Moreover, the EC50 was > 32 µM (inactive) on Cannabinoid receptor 1 [17], 3.61 µM (active) at Cannabinoid receptor 2 [18] and > 32 µM (inactive) in experiment [19].

With `COc1ccc(CN(Cc2ccccn2)C(=O)CN2C(=O)COc3ccccc32)cc1`, the figures for the EC50 (on Mu-type opioid receptor [20]; in experiment [21]; in experiment [25]) were > 32 µM (inactive), > 32 µM (inactive) and > 10 µM (inactive), respectively. The IC50 (in [22]; in experiment [23]; at Mu-type opioid receptor [24]) was > 32 µM (inactive) each time.
